The values that follow come from ChEMBL document CHEMBL2073847, “Inhibition of the CYP3A4-mediated metabolism and P-glycoprotein-mediated transport of the HIV-1 protease inhibitor saquinavir by grapefruit juice components” (Br J Clin Pharmacol, 1999).

Series [1] deals with T1, ATP-dependent translocase ABCB1 (Homo sapiens, UniProt P08183). Nature of the series: TP_TRANSPORTER: inhibition of Saquinavir transepithelial transport (basal to apical) in Caco-2 cells. Type of series: functional, cell-based.
T1 sequence (P08183 whole entry): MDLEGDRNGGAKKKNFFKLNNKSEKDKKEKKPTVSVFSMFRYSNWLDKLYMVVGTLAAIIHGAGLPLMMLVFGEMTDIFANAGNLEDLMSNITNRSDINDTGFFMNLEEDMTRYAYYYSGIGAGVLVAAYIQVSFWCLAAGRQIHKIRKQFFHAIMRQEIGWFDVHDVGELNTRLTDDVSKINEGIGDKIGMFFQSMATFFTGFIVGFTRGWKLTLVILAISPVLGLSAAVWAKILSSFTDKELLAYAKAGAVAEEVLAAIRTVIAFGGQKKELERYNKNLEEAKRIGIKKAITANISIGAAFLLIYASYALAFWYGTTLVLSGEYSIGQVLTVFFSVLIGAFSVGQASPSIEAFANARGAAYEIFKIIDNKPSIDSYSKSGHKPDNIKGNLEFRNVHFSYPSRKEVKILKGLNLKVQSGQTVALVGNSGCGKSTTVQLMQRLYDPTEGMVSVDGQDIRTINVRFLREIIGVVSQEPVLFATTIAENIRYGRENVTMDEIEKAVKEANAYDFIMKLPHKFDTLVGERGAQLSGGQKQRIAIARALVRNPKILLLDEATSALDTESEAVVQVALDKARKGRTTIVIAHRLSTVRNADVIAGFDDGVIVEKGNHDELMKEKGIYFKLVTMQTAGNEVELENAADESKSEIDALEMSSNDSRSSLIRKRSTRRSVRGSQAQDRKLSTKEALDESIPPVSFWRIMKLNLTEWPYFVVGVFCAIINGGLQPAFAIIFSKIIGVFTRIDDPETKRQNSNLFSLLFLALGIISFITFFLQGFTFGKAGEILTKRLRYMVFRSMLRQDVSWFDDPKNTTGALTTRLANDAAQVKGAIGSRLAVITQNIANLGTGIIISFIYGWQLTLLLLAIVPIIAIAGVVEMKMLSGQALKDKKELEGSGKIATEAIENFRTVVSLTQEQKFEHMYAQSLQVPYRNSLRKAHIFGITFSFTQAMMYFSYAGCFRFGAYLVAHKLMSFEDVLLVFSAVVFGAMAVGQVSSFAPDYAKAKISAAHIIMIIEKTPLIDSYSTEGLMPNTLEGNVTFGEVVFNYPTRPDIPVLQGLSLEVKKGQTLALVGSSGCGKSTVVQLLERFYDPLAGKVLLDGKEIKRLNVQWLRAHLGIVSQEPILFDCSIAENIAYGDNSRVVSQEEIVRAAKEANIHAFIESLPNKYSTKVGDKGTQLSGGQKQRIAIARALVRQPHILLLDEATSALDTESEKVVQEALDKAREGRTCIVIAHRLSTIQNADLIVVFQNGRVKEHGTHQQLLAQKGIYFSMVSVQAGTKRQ
For series [2], the target named is T1, ATP-dependent translocase ABCB1. Nature of the series: TP_TRANSPORTER: transepithelial transport (basal to apical) in Caco-2 cells. It is filed as functional, cell-based.

Take `O=C1C[C@@H](c2ccc(O)cc2)Oc2cc(O)cc(O)c21` [NARINGENIN]: in series [1], the Activity result is “inhibitor [+]”.
Still for that read-out and setting: the result for `CC(C)=CCC/C(C)=C/COc1c2ccoc2cc2oc(=O)ccc12` [BERGAMOTTIN] reads “is not an inhibitor [-]”; that for `C[C@@H]1O[C@@H](O[C@H]2[C@H](Oc3cc(O)c4c(c3)O[C@H](c3ccc(O)cc3)CC4=O)O[C@H](CO)[C@@H](O)[C@@H]2O)[C@H](O)[C@H](O)[C@H]1O` [NARINGIN], “inhibitor [+]”.
In the case of `CC(C)(C)NC(=O)[C@@H]1C[C@@H]2CCCC[C@@H]2CN1C[C@@H](O)[C@H](Cc1ccccc1)NC(=O)[C@H](CC(N)=O)NC(=O)c1ccc2ccccc2n1` [SAQUINAVIR], the Activity entry in series [2] was “substrate [+]”.
In the case of `C/C(=C\COc1c2ccoc2cc2oc(=O)ccc12)CC[C@@H](O)C(C)(C)O`, the Activity result in series [1] is “is not an inhibitor [-]”.
